One compound from patent US7094581B2, “Hyaluronan synthases and methods of making and using same” (The Board of Regents of the University of Oklahoma, priority 1998, dated 2006) can be followed below.

The target in experiment [1] is T1, spHAS (Streptococcus pyogenes serotype M6, UniProt Q5X9A9).
T1 construct: made in house; host or cells: E. coli SURE cells (isolated membranes)
T1 sequence (Q5X9A9 1-419): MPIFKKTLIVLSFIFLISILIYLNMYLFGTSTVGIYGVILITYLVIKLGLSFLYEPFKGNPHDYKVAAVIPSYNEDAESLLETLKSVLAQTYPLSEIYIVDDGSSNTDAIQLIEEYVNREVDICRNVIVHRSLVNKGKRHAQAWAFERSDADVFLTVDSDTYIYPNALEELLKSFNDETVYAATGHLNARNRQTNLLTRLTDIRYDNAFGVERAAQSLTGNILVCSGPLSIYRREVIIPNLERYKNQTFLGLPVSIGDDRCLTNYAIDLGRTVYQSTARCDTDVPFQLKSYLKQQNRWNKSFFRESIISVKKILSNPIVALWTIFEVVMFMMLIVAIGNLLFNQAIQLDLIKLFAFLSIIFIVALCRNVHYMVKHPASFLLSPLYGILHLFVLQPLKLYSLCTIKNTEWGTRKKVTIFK
The experiment in a line: Effect of sulfhydryl reagents on spHAS activity in E. coli membranes. The class given is biochemical. The note with it: E. coli membranes with spHAS-H6, 4° C. 1 h, 5 mM NEM, 5 mM IAA, 0.5 mM 5,5′-dithiobis-(2-nitrobenzoic acid), 0.05 mM methylmethanethiosulfonate, 10 mM sodium arsenite. The protocol:
(§1) SeHAS is the smallest HAS protein (417 amino acids) and contains four Cys residues. […] To explore the possible role of cysteines in the function of HAS, the activities of seHAS and spHAS were assayed in the presence of different sulfhydryl reagents (Table II). […] The inhibition of each HAS by NEM was examined in more detail with respect to time of incubation and NEM concentration (FIG. 2).
(§2) E. coli SURE cells transformed with plasmids containing various seHAS mutants were grown in LB medium with vigorous shaking at 32° C. to A600 ˜0.8 and induced with 1 mM isopropyl-β-thiogalactoside for 3 h. Cells were harvested and membranes were prepared as described previously. The kinetic constants for HAS were determined at 37° C. in 100 μl of 50 mM sodium and potassium phosphate, pH 7.0, with 20 mM MgCl2, 1 mM DTE, 240 μM UDP-GIcUA, 0.7 μM UDP-[^14C]GIcUA and 0.6–1.0 mM UDP-GIcNAc. in 100 μl of 25 mM sodium and potassium phosphate, pH 7, containing 50 mM NaCl, 20 mM MgCl2, 1 mM dithiothreitol, 1 mM UDP-GIcUA, 0.68 μM UDP-GIcUA and 1 mM UDP-GIcNAc. Some assays also contained 0.1 mM EDTA and 20% glycerol (v/v). To initiate the enzyme reaction, ˜0.5–40 μg of membrane protein was added and the mixtures were gently shaken in a MicroMixer X-36 (Tiatec) at 30° C. for 1–2 h. Reactions were terminated by the addition of SDS to a final concentration of 2% (w/v). The incorporation of radioactive [^14C]GIcUA was determined by descending paper chromatography and the Km and Vmax values were determined as described by Tlapak-Simmons et al (1999b). Data were analyzed by the methods of Michaelis-Menton or Hill. Protein content was determined by the method of Bradford using bovine serum albumin as the standard. All Cys-mutant or sulfhydryl-treated seHAS samples were assayed in duplicate or triplicate using two or three independent membrane preparations. […] All enzyme assays were performed under conditions that were linear with respect to time and protein concentration.
(§3) Stock solutions (10–100 mM) of NEM, IAA or other sulfhydryl reagents were made in PBS, pH 7.0. Suspensions of membranes containing seHAS or spHAS were incubated with 0–5 mM of the sulfhydryl reagent at 4° C. and the reactions were stopped by adding DTE to a final concentration of 10 mM. The membranes were then assayed for HAS activity as described above.

In experiment [2] the test system is seHAS. Kind of experiment: Effect of sulfhydryl reagents on seHAS activity in E. coli membranes. The class given is biochemical, Streptococcus equisimilis. The note with it: E. coli membranes with seHAS-H6, 4° C. 1 h, 5 mM NEM, 5 mM IAA, 0.5 mM 5,5′-dithiobis-(2-nitrobenzoic acid), 0.05 mM methylmethanethiosulfonate, 10 mM sodium arsenite. The protocol: as §1, §2, §3

Experiment [3] deals with wild-type seHAS. Kind of experiment: Utilization of UDP-GlcUA and UDP-GlcNAc by wild-type seHAS after NEM or sodium arsenite treatment. The note with it: membranes 4° C. 1 h with 5 mM NEM or 10 mM sodium arsenite. Format: biochemical, Streptococcus equisimilis. The protocol: FIG. 3. Effect of NEM or sodium arsenite treatment on the utilization of UDP-GIcUA and UDP-GIcNAc by wild-type seHAS. E. coli membranes containing seHAS protein were incubated at 4° C. for 1 h in PBS containing 5 mM NEM or 10 mM Sodium Arsenite (SodArs), and the control membranes were incubated with PBS alone. Michaelis-Menten constants (Km) were calculated from the activities of seHAS at varying concentrations of UDP-GIcUA or UDP-GIcNAc.
Modification of the protein by NEM could affect any one or several of the six discrete functions that HAS must perform in order to synthesize HA. In order to determine if one of the nucleotide-sugar binding sites was affected by NEM, we examined the UDP-GIcUA and UDP-GIcNAc saturation profiles for treated and untreated seHAS (FIG. 3 and Table III).
E. coli SURE cells transformed with plasmids containing various seHAS mutants were grown in LB medium with vigorous shaking at 32° C. to A600 ˜0.8 and induced with 1 mM isopropyl-β-thiogalactoside for 3 h. Cells were harvested and membranes were prepared as described previously. The kinetic constants for HAS were determined at 37° C. in 100 μl of 50 mM sodium and potassium phosphate, pH 7.0, with 20 mM MgCl2, 1 mM DTE, 240 μM UDP-GIcUA, 0.7 μM UDP-[^14C]GIcUA and 0.6–1.0 mM UDP-GIcNAc. in 100 μl of 25 mM sodium and potassium phosphate, pH 7, containing 50 mM NaCl, 20 mM MgCl2, 1 mM dithiothreitol, 1 mM UDP-GIcUA, 0.68 μM UDP-GIcUA and 1 mM UDP-GIcNAc. Some assays also contained 0.1 mM EDTA and 20% glycerol (v/v). To initiate the enzyme reaction, ˜0.5–40 μg of membrane protein was added and the mixtures were gently shaken in a MicroMixer X-36 (Tiatec) at 30° C. for 1–2 h. Reactions were terminated by the addition of SDS to a final concentration of 2% (w/v). The incorporation of radioactive [^14C]GIcUA was determined by descending paper chromatography and the Km and Vmax values were determined as described by Tlapak-Simmons et al (1999b). Data were analyzed by the methods of Michaelis-Menton or Hill. Protein content was determined by the method of Bradford using bovine serum albumin as the standard. All Cys-mutant or sulfhydryl-treated seHAS samples were assayed in duplicate or triplicate using two or three independent membrane preparations. Results are presented as the mean±standard errors. All enzyme assays were performed under conditions that were linear with respect to time and protein concentration. None of the seHAS variant enzymes were unstable under the conditions employed.

Each structure is given as a SMILES string. Values joined by “and” are separate entries in the source; they are usually repeats but may differ in a detail not shown here. Equal entries are not always repeated. Where two headings read alike, the source gives them in different places.

As to `CCN1C(=O)C=CC1=O` [N-ethylmaleimide], the “Inhibition of HAS Activity (% relative to control), spHAS” value is listed as 60 ± 3.5% in experiment [1] and 60–70% in experiment [1] (listed as NEM). In addition, the “Inhibition of HAS Activity (% relative to control), seHAS” value in experiment [2] is 70 ± 4.8%; in experiment [2] (listed as NEM), ~70% and 60–70%. The “Vmax of treated wild-type seHAS, UDP-GlcNAc” value in experiment [3] turned out to be 7.3 ± 2.2 nmol/µg/h. In addition, in experiment [3], the “Vmax of treated wild-type seHAS, UDP-GlcUA” value was 7.3 ± 2.2 nmol/µg/h. The Km in experiment [3] (read-out: Km for UDP-GlcNAc of treated wild-type seHAS) was found to be 82 ± 17 µM; in experiment [3] (read-out: Km for UDP-GlcUA of treated wild-type seHAS), 57 ± 5 µM.

For orientation: Km means the substrate concentration at which the rate is half of its maximum.
